Measured values taken from PubChem BioAssay (NCI).
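GI50 = concentration required for 50% inhibition of growth. TGI: total growth inhibition.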

Legend:
Assay in all cases: growth of human tumour cells (NCI), 384-well format
KM12 colon = tested on: KM12 colon
PC-3 prostate = tested on: PC-3 prostate
MCF7 breast = tested on: MCF7 breast
BT-549 breast = tested on: BT-549 breast
COLO 205 colon = tested on: COLO 205 colon
786-0 renal = tested on: 786-0 renal
M14 melanoma = tested on: M14 melanoma
SK-MEL-5 melanoma = tested on: SK-MEL-5 melanoma
T-47D breast = tested on: T-47D breast
RXF 393 renal = tested on: RXF 393 renal
HOP-62 NSCLC = tested on: HOP-62 NSCLC
SF-268 CNS = tested on: SF-268 CNS
HCC-2998 colon = tested on: HCC-2998 colon

Cc1c(Br)c(Br)c2c3c1nc(N1CCNCC1)n3CCC2
GI50 (KM12 colon): 1410 nM
TGI (KM12 colon): 2730 nM
GI50 (PC-3 prostate): 1320 nM
TGI (PC-3 prostate): 2670 nM
GI50 (MCF7 breast): 1170 nM
TGI (MCF7 breast): 2420 nM
GI50 (BT-549 breast): 1350 nM
TGI (BT-549 breast): 2640 nM
GI50 (COLO 205 colon): 1800 nM
TGI (COLO 205 colon): 3210 nM
GI50 (786-0 renal): 1550 nM
TGI (786-0 renal): 2900 nM
GI50 (M14 melanoma): 1530 nM
TGI (M14 melanoma): 2880 nM
GI50 (SK-MEL-5 melanoma): 1250 nM
TGI (SK-MEL-5 melanoma): 2510 nM
GI50 (T-47D breast): 1520 nM
TGI (T-47D breast): 2860 nM
GI50 (RXF 393 renal): 1390 nM
TGI (RXF 393 renal): 2680 nM
GI50 (HOP-62 NSCLC): 1720 nM
TGI (HOP-62 NSCLC): 3570 nM
GI50 (SF-268 CNS): 1330 nM
TGI (SF-268 CNS): 2650 nM
GI50 (HCC-2998 colon): 976 nM
TGI (HCC-2998 colon): 2230 nM

CN1C(=O)[C@@H](CC2CCCC2)N(C2CCCC2)c2nc(Nc3cc(Cl)c(O)c(Cl)c3)ncc21
GI50 (KM12 colon): 4900 nM
TGI (KM12 colon): 24600 nM
GI50 (PC-3 prostate): 3420 nM
TGI (PC-3 prostate): 20200 nM
GI50 (MCF7 breast): 3160 nM
TGI (MCF7 breast): 23100 nM
GI50 (BT-549 breast): 4020 nM
TGI (BT-549 breast): 17500 nM
GI50 (COLO 205 colon): 27800 nM
TGI (COLO 205 colon): 81800 nM
GI50 (786-0 renal): 8070 nM
TGI (786-0 renal): 24300 nM
GI50 (M14 melanoma): 6270 nM
TGI (M14 melanoma): 97700 nM
GI50 (SK-MEL-5 melanoma): 4570 nM
TGI (SK-MEL-5 melanoma): 16400 nM
GI50 (T-47D breast): 2380 nM
TGI (T-47D breast): > 100000 nM
GI50 (RXF 393 renal): 2450 nM
TGI (RXF 393 renal): 7680 nM
GI50 (HOP-62 NSCLC): 12100 nM
TGI (HOP-62 NSCLC): 33100 nM
GI50 (SF-268 CNS): 11200 nM
TGI (SF-268 CNS): 70000 nM
GI50 (HCC-2998 colon): 5310 nM
TGI (HCC-2998 colon): 20500 nM
